# Experimental data from ChEMBL document CHEMBL5727750, “Heterocyclic compounds as immunomodulators” (2020).
# pEC50: −log10 of the molar value. Where “and” joins values, the source holds several entries; their conditions need not be identical. Equal values may be shown once.
# Assay: Nuclear Factor of Activated T-Cells (NFAT) Assay: PD-L1 aAPC/CHO-Klcells (Promega) were maintained in F-12 medium with addition of 10% FBS, 200 μg/ml Hygromycin B, 250 μg/ml Geneticin (G418). Jurkat-PD-1-NFAT effector cells (Promega) were cultured in RPMI 1640 medium supplemented with 10% FBS, 100 μg/ml Hygromycin B, 500 μg/ml G418. The culture media of PD-L1 aAPC/CHO-K1 cells were first replaced with assay medium (RPMI1640 medium with 1% FBS). The PD-L1 aAPC/CHO-K1 cells were then added in a white 384-well white clear bottom assay plate (CELLCOAT® Tissue Culture Plates, Greiner Bio-One) at 8000 per well in 10 μL assay medium. Test compounds were prepared by serial dilution in DMSO and 0.8 μL test compounds in DMSO were first transferred to the 384 REMP plate well (Thermofisher) by PlateMate Plus (Thermofisher) followed with addition of 50 μL plating medium. 5 μL compounds in the assay medium were transferred to the cells with 0.4% DMSO in the final assay at 2 μM. After removing the culture media, 10,000 Jurkat-PD-1-NFAT effector cells in 5 μL assay medium was dispensed into each well. The assay plate was incubated at 37° C., 5% CO2 for 24 hours. After the assay plate was equilibrated to room temp for 15 minutes, 20 µL/well of Bio-Glo™ reagent (Promega) were added. After 8 minutes incubation at room temperature, luminescence was read at with Pherastar microplate reader (BMG Labtech). The fold of induction (FOI) was calculated based on the ratio of luminescence normalized to the DMSO wells within each assay plate. The maximum percentage of induction was reported based on the ratio between the highest FOI of each compound and the maximum FOI of control compound within each assay plate. Wells with DMSO were served as the negative controls and wells containing control compound with the highest FOI were used as positive controls. EC50 determination was performed by fitting the curve of percent control activity versus the log of the compound concentration using the GraphPad Prism 6.0 software.
SMILES,pEC50,EC50
Cc1c(Nc2nc(C(F)F)nc3cc(CN4CC[C@@H](O)C4)cnc23)cccc1-c1cccc(-c2nc3cc(CN4CCC(C(=O)N(C)C)CC4)cc(C#N)c3o2)c1C,7.00 to 8.00,–
Cc1c(Nc2nc(N)nc3cc(CN4CC[C@@H](O)C4)cnc23)cccc1-c1cccc(-c2nc3cc(CN4CCC(C(=O)O)CC4)cc(C#N)c3o2)c1C,7.00 to 8.00,–
Cc1nc(Nc2cccc(-c3cccc(-c4nc5cc(CN6CC[C@@H](C(=O)O)C6)cc(C#N)c5o4)c3C)c2C)c2ncc(CN3CC[C@](C)(O)C3)cc2n1,7.00 to 8.00,–
Cc1nc(Nc2cccc(-c3cccc(-c4nc5cc(CN6CC[C@@](C)(C(=O)O)C6)cc(C#N)c5o4)c3C)c2C)c2ncc(CN3CC[C@@H](O)C3)cc2n1,7.00 to 8.00,–
Cc1c(Nc2nc(C(F)F)cc3cc(CN4CC[C@@H](O)C4)cnc23)cccc1-c1cccc(-c2nc3cc(CN4CC[C@@](C)(C(=O)O)C4)cc(C#N)c3o2)c1C,> 8.00,–
Cc1nc(Nc2cccc(-c3cccc(-c4nc5cc(CN6CC[C@@](C)(C(=O)O)C6)cc(C#N)c5o4)c3C)c2C)c2ncc(CNC[C@H](C)O)cc2n1,–,in the range around 55 nM
Cc1c(Nc2nc(C(F)F)nc3cc(CN4CC[C@@H](O)C4)cnc23)cccc1-c1cccc(-c2nc3cc(CN4CCC(C)(C(=O)O)CC4)cc(C#N)c3o2)c1C,7.00 to 8.00,–
Cc1c(Nc2nc(C(F)F)nc3cc(CN4CC[C@@H](O)C4)cnc23)cccc1-c1cccc(-c2nc3cc(CN4CCC(C(=O)O)CC4)cc(C#N)c3o2)c1C,–,in the range around 55 nM
Cc1c(Nc2nc(C(F)F)nc3cc(CN4CC[C@@H](O)C4)cnc23)cccc1-c1cccc(-c2nc3cc(CN4CC[C@](C)(C(=O)O)C4)cc(C#N)c3o2)c1C,> 8.00,–
Cc1nc(Nc2cccc(-c3cccc(-c4nc5cc(CN6CC[C@@](C)(C(=O)O)C6)cc(C#N)c5o4)c3C)c2C)c2ncc(CN[C@@H](C)CO)cc2n1,–,in the range around 55 nM
Cc1c(Nc2nc(C(F)F)nc3cc(CN4CC[C@@H](O)C4)cnc23)cccc1-c1cccc(-c2nc3cc(CN4CCC(C(=O)NCCC(=O)O)CC4)cc(C#N)c3o2)c1C,7.00 to 8.00,–
Cc1c(Nc2nc(C(F)F)nc3cc(CN4CC[C@@H](O)C4)cnc23)cccc1-c1cccc(-c2nc3cc(CN4CC[C@H](C(=O)O)C4)cc(C#N)c3o2)c1C,7.00 to 8.00,–
CNC(=O)C1CCN(Cc2cc(C#N)c3oc(-c4cccc(-c5cccc(Nc6nc(C(F)F)nc7cc(CN8CC[C@@H](O)C8)cnc67)c5C)c4C)nc3c2)CC1,> 8.00,–
Cc1nc(Nc2cccc(-c3cccc(-c4nc5cc(CN6CC[C@@H](C(=O)O)C6)cc(C#N)c5o4)c3C)c2C)c2ncc(CN3CC[C@@H](O)C3)cc2n1,7.00 to 8.00 and > 8.00,–
Cc1nc(Nc2cccc(-c3cccc(-c4nc5cc(CN6CC[C@@H](C(=O)O)C6)cc(C#N)c5o4)c3C)c2C)c2ncc(CNC[C@H](C)O)cc2n1,7.00 to 8.00,–
Cc1c(Nc2nc(C(F)F)nc3cc(CN4CC[C@@](C)(O)C4)cnc23)cccc1-c1cccc(-c2nc3cc(CN4CCC(C(=O)O)CC4)cc(C#N)c3o2)c1C,> 8.00,–
Cc1c(Nc2nc(C(F)F)nc3cc(CN4CC[C@@H](O)C4)cnc23)cccc1-c1cccc(-c2nc3cc(CN4CC[C@@H](C(=O)O)C4)cc(C#N)c3o2)c1C,–,10 nM and 100 nM and in the range around 55 nM
Cc1nc(Nc2cccc(-c3cccc(-c4nc5cc(CN6CC[C@@](C)(C(=O)O)C6)cc(C#N)c5o4)c3C)c2C)c2ncc(CN3CC[C@](C)(O)C3)cc2n1,7.00 to 8.00,–
Cc1nc(Nc2cccc(-c3cccc(-c4nc5cc(CN6CCC(C(=O)O)CC6)cc(C#N)c5o4)c3C)c2C)c2ncc(CN[C@@H](C)CO)cc2n1,–,in the range around 55 nM
Cc1c(Nc2nc(C(F)F)nc3cc(CN4CC[C@](C)(O)C4)cnc23)cccc1-c1cccc(-c2nc3cc(CN4CCC(C(=O)O)CC4)cc(C#N)c3o2)c1C,> 8.00,–
Cc1c(Nc2nc(CO)nc3cc(CN4CC[C@@H](O)C4)cnc23)cccc1-c1cccc(-c2nc3cc(CN4CCC(C(=O)O)CC4)cc(C#N)c3o2)c1C,7.00 to 8.00,–
Cc1c(Nc2nc(C(F)F)nc3cc(CN4CC[C@@H](O)C4)cnc23)cccc1-c1cccc(-c2nc3cc(CN4CC[C@@](C)(C(=O)O)C4)cc(C#N)c3o2)c1C,–,10 nM and 100 nM and in the range around 55 nM
Cc1nc(Nc2cccc(-c3cccc(-c4nc5cc(CN6CCC(C(=O)O)CC6)cc(C#N)c5o4)c3C)c2C)c2ncc(CN3CC[C@@](C)(O)C3)cc2n1,7.00 to 8.00,–
Cc1c(Nc2nc(C3CC3)nc3cc(CN4CC[C@@H](O)C4)cnc23)cccc1-c1cccc(-c2nc3cc(CN4CC[C@@H](C(=O)O)C4)cc(C#N)c3o2)c1C,–,in the range around 55 nM
Cc1nc(Nc2cccc(-c3cccc(-c4nc5cc(CN6CC[C@@H](C(=O)O)C6)cc(C#N)c5o4)c3C)c2C)c2ncc(CN[C@@H](C)CO)cc2n1,7.00 to 8.00,–
Cc1nc(Nc2cccc(-c3cccc(-c4nc5cc(CN6CCC(C(=O)O)CC6)cc(C#N)c5o4)c3C)c2C)c2ncc(CN3CC[C@](C)(O)C3)cc2n1,7.00 to 8.00,–
Cc1nc(Nc2cccc(-c3cccc(-c4nc5cc(CN6CC[C@@H](C(=O)O)C6)cc(C#N)c5o4)c3C)c2C)c2ncc(CN3CC[C@@](C)(O)C3)cc2n1,7.00 to 8.00,–
Cc1nc(Nc2cccc(-c3cccc(-c4nc5cc(CN6CCC(C(=O)O)CC6)cc(C#N)c5o4)c3C)c2C)c2ncc(CN3CC[C@@H](O)C3)cc2n1,7.00 to 8.00,–
Cc1nc(Nc2cccc(-c3cccc(-c4nc5cc(CN6CC[C@@](C)(C(=O)O)C6)cc(C#N)c5o4)c3C)c2C)c2ncc(CN3CC[C@@](C)(O)C3)cc2n1,7.00 to 8.00,–
Cc1nc(Nc2cccc(-c3cccc(-c4nc5cc(CN6CCC(C(=O)O)CC6)cc(C#N)c5o4)c3C)c2C)c2ncc(CNC[C@H](C)O)cc2n1,–,in the range around 55 nM
